Numbers after ± are expanded uncertainties.
Test: mn = molality of the nth substance listed, in mol/kg
Settings: Liquid, Vibrating tube method

[Cl-].[Cl-].[Zn+2] [zinc chloride] + CO
Settings | mass density [kg/m3]
298.27 K, 170 kPa, m1 = 0.8018 | 861.37 ± 0.42
298.27 K, 188 kPa, m1 = 0.4768 | 833.84 ± 0.42
298.27 K, 200 kPa, m1 = 5.367 | 1205.67 ± 0.43
298.27 K, 203 kPa, m1 = 1.039 | 881.26 ± 0.42
298.27 K, 205 kPa, m1 = 0.1348 | 801.32 ± 0.43
298.27 K, 205 kPa, m1 = 1.977 | 959.59 ± 0.42
298.27 K, 4983 kPa, m1 = 5.367 | 1209.53 ± 0.44
298.27 K, 4985 kPa, m1 = 1.039 | 885.56 ± 0.42
298.27 K, 4994 kPa, m1 = 0.4768 | 838 ± 0.43
298.27 K, 4996 kPa, m1 = 0.8018 | 865.98 ± 0.43
298.27 K, 5004 kPa, m1 = 0.1348 | 805.97 ± 0.44
298.27 K, 5014 kPa, m1 = 1.977 | 963.97 ± 0.42
298.27 K, 9992 kPa, m1 = 5.367 | 1213.48 ± 0.46
298.27 K, 9995 kPa, m1 = 0.8018 | 870.53 ± 0.43
298.27 K, 9996 kPa, m1 = 1.977 | 968.35 ± 0.42
298.27 K, 9997 kPa, m1 = 1.039 | 889.93 ± 0.43
298.27 K, 10000 kPa, m1 = 0.1348 | 810.57 ± 0.45
298.27 K, 10004 kPa, m1 = 0.4768 | 841.99 ± 0.44
298.27 K, 14982 kPa, m1 = 0.4768 | 845.9 ± 0.45
298.27 K, 14987 kPa, m1 = 1.039 | 894.12 ± 0.43
298.27 K, 14995 kPa, m1 = 5.367 | 1217.3 ± 0.47
298.27 K, 14997 kPa, m1 = 1.977 | 972.58 ± 0.42
298.27 K, 15000 kPa, m1 = 0.8018 | 874.88 ± 0.44
298.27 K, 15010 kPa, m1 = 0.1348 | 814.96 ± 0.46
298.27 K, 19985 kPa, m1 = 1.039 | 898.15 ± 0.44
298.27 K, 19988 kPa, m1 = 5.367 | 1221.03 ± 0.5
298.27 K, 19989 kPa, m1 = 1.977 | 976.63 ± 0.42
298.27 K, 20001 kPa, m1 = 0.8018 | 879.03 ± 0.44
298.27 K, 20007 kPa, m1 = 0.1348 | 819.13 ± 0.47
298.27 K, 20018 kPa, m1 = 0.4768 | 849.66 ± 0.46
298.27 K, 24988 kPa, m1 = 0.8018 | 883.01 ± 0.45
298.27 K, 24993 kPa, m1 = 1.977 | 980.56 ± 0.42
298.27 K, 24996 kPa, m1 = 5.367 | 1224.68 ± 0.52
298.27 K, 24999 kPa, m1 = 0.1348 | 823.11 ± 0.48
298.27 K, 25003 kPa, m1 = 1.039 | 902.02 ± 0.44
298.27 K, 25032 kPa, m1 = 0.4768 | 853.57 ± 0.47
298.27 K, 29990 kPa, m1 = 1.977 | 984.35 ± 0.42
298.27 K, 29994 kPa, m1 = 5.367 | 1228.21 ± 0.55
298.27 K, 30002 kPa, m1 = 0.1348 | 826.95 ± 0.5
298.27 K, 30004 kPa, m1 = 0.4768 | 857.56 ± 0.48
298.27 K, 30004 kPa, m1 = 0.8018 | 886.87 ± 0.46
298.27 K, 30007 kPa, m1 = 1.039 | 905.8 ± 0.45
298.27 K, 34983 kPa, m1 = 1.039 | 909.4 ± 0.45
298.27 K, 34992 kPa, m1 = 0.8018 | 890.56 ± 0.47
298.27 K, 34993 kPa, m1 = 0.1348 | 830.61 ± 0.51
298.27 K, 34993 kPa, m1 = 0.4768 | 862.15 ± 0.49
298.27 K, 34996 kPa, m1 = 5.367 | 1231.68 ± 0.58
298.27 K, 35014 kPa, m1 = 1.977 | 988.04 ± 0.42
298.27 K, 39991 kPa, m1 = 1.039 | 912.9 ± 0.46
298.27 K, 39994 kPa, m1 = 1.977 | 991.58 ± 0.42
298.27 K, 39994 kPa, m1 = 5.367 | 1235.1 ± 0.62
298.27 K, 39997 kPa, m1 = 0.4768 | 866.01 ± 0.5
298.27 K, 39997 kPa, m1 = 0.8018 | 894.15 ± 0.47
298.27 K, 40006 kPa, m1 = 0.1348 | 834.16 ± 0.53
323.24 K, 207 kPa, m1 = 0.4768 | 808.23 ± 0.43
323.24 K, 209 kPa, m1 = 0.1348 | 777.17 ± 0.43
323.24 K, 209 kPa, m1 = 5.367 | 1172.87 ± 0.43
323.24 K, 220 kPa, m1 = 1.039 | 855.22 ± 0.42
323.24 K, 230 kPa, m1 = 1.977 | 931.65 ± 0.42
323.24 K, 233 kPa, m1 = 0.8018 | 835.94 ± 0.42
323.24 K, 4983 kPa, m1 = 0.8018 | 841.09 ± 0.43
323.24 K, 4985 kPa, m1 = 0.4768 | 813.47 ± 0.43
323.24 K, 4990 kPa, m1 = 0.1348 | 782.51 ± 0.44
323.24 K, 4993 kPa, m1 = 1.977 | 936.57 ± 0.42
323.24 K, 4994 kPa, m1 = 1.039 | 860.28 ± 0.43
323.24 K, 4999 kPa, m1 = 5.367 | 1177.21 ± 0.44
323.24 K, 9985 kPa, m1 = 1.977 | 941.48 ± 0.42
323.24 K, 9994 kPa, m1 = 0.4768 | 818.67 ± 0.44
323.24 K, 9997 kPa, m1 = 5.367 | 1181.61 ± 0.45
323.24 K, 10002 kPa, m1 = 0.8018 | 846.25 ± 0.44
323.24 K, 10003 kPa, m1 = 0.1348 | 787.77 ± 0.45
323.24 K, 10005 kPa, m1 = 1.039 | 865.32 ± 0.43
323.24 K, 14982 kPa, m1 = 0.4768 | 823.55 ± 0.45
323.24 K, 14998 kPa, m1 = 1.977 | 946.2 ± 0.42
323.24 K, 14999 kPa, m1 = 0.1348 | 792.71 ± 0.47
323.24 K, 14999 kPa, m1 = 1.039 | 870.09 ± 0.44
323.24 K, 15002 kPa, m1 = 0.8018 | 851.11 ± 0.44
323.24 K, 15002 kPa, m1 = 5.367 | 1185.89 ± 0.46
323.24 K, 19995 kPa, m1 = 0.4768 | 828.21 ± 0.47
323.24 K, 19998 kPa, m1 = 5.367 | 1190.03 ± 0.48
323.24 K, 19999 kPa, m1 = 0.8018 | 855.74 ± 0.45
323.24 K, 19999 kPa, m1 = 1.977 | 950.72 ± 0.42
323.24 K, 20000 kPa, m1 = 0.1348 | 797.39 ± 0.48
323.24 K, 20003 kPa, m1 = 1.039 | 874.64 ± 0.44
323.24 K, 24989 kPa, m1 = 0.8018 | 860.16 ± 0.46
323.24 K, 24989 kPa, m1 = 1.977 | 955.05 ± 0.42
323.24 K, 24989 kPa, m1 = 5.367 | 1194.06 ± 0.5
323.24 K, 24990 kPa, m1 = 1.039 | 878.98 ± 0.45
323.24 K, 24994 kPa, m1 = 0.1348 | 801.85 ± 0.5
323.24 K, 24999 kPa, m1 = 0.4768 | 832.65 ± 0.48
323.24 K, 29987 kPa, m1 = 0.4768 | 836.86 ± 0.49
323.24 K, 29989 kPa, m1 = 0.8018 | 864.4 ± 0.47
323.24 K, 29990 kPa, m1 = 1.977 | 959.23 ± 0.43
323.24 K, 29993 kPa, m1 = 0.1348 | 806.09 ± 0.52
323.24 K, 30001 kPa, m1 = 5.367 | 1197.99 ± 0.52
323.24 K, 30007 kPa, m1 = 1.039 | 883.18 ± 0.46
323.24 K, 34987 kPa, m1 = 5.367 | 1201.8 ± 0.55
323.24 K, 34989 kPa, m1 = 1.039 | 887.17 ± 0.47
323.24 K, 34998 kPa, m1 = 0.8018 | 868.48 ± 0.48
323.24 K, 35001 kPa, m1 = 1.977 | 963.27 ± 0.43
323.24 K, 35003 kPa, m1 = 0.4768 | 840.94 ± 0.51
323.24 K, 35007 kPa, m1 = 0.1348 | 810.14 ± 0.53
323.24 K, 39991 kPa, m1 = 1.039 | 891.04 ± 0.48
323.24 K, 39994 kPa, m1 = 0.4768 | 844.83 ± 0.52
323.24 K, 39995 kPa, m1 = 0.8018 | 872.4 ± 0.49
323.24 K, 39995 kPa, m1 = 5.367 | 1205.55 ± 0.58
323.24 K, 39997 kPa, m1 = 0.1348 | 814 ± 0.55
323.24 K, 39997 kPa, m1 = 1.977 | 967.17 ± 0.42
348.27 K, 305 kPa, m1 = 1.977 | 904.26 ± 0.42
348.27 K, 308 kPa, m1 = 0.1348 | 752.15 ± 0.43
348.27 K, 320 kPa, m1 = 0.4768 | 782.8 ± 0.43
348.27 K, 328 kPa, m1 = 0.8018 | 810.17 ± 0.43
348.27 K, 330 kPa, m1 = 1.039 | 829.39 ± 0.42
348.27 K, 335 kPa, m1 = 5.367 | 1141.63 ± 0.43
348.27 K, 4982 kPa, m1 = 5.367 | 1146.29 ± 0.43
348.27 K, 4983 kPa, m1 = 0.4768 | 788.73 ± 0.44
348.27 K, 4984 kPa, m1 = 1.977 | 909.72 ± 0.42
348.27 K, 4989 kPa, m1 = 0.1348 | 758.25 ± 0.44
348.27 K, 4994 kPa, m1 = 1.039 | 835.08 ± 0.43
348.27 K, 4999 kPa, m1 = 0.8018 | 816.01 ± 0.43
348.27 K, 9985 kPa, m1 = 1.977 | 915.25 ± 0.42
348.27 K, 9992 kPa, m1 = 0.8018 | 821.86 ± 0.44
348.27 K, 9992 kPa, m1 = 5.367 | 1151.14 ± 0.44
348.27 K, 9993 kPa, m1 = 0.1348 | 764.3 ± 0.46
348.27 K, 9998 kPa, m1 = 0.4768 | 794.7 ± 0.45
348.27 K, 10000 kPa, m1 = 1.039 | 840.82 ± 0.44
348.27 K, 14985 kPa, m1 = 0.4768 | 800.24 ± 0.46
348.27 K, 14985 kPa, m1 = 0.8018 | 827.35 ± 0.45
348.27 K, 14987 kPa, m1 = 1.039 | 846.22 ± 0.45
348.27 K, 14992 kPa, m1 = 1.977 | 920.51 ± 0.43
348.27 K, 14999 kPa, m1 = 0.1348 | 769.95 ± 0.48
348.27 K, 15020 kPa, m1 = 5.367 | 1155.81 ± 0.45
348.27 K, 19986 kPa, m1 = 1.977 | 925.5 ± 0.43
348.27 K, 19989 kPa, m1 = 0.4768 | 805.48 ± 0.48
348.27 K, 19994 kPa, m1 = 0.8018 | 832.56 ± 0.46
